What was measured:
SHSY-5Y cells = test: MTS cell viability assay; type: cell-based
Experimental: SHSY-5Y cells (kindly provided by I. Szabò) were grown in Dulbecco’s Modified Eagle Medium (DMEM, Aurogene) supplemented with 10% (v/v) fetal bovine serum (FBS), 100 U/mL penicillin G, 0.1 mg/mL streptomycin and 5% glutamine.
SHSY-5Y cells were seeded (10,000 cells/well) in standard 96-well plates in DMEM (200 µL). After 24 h, the growth medium was replaced with a medium containing PAPTP and PAPTPL (from a stock solution in DMSO) at the desired final concentrations (20, 10 and 3 μM). DMEM without additions (CONTROL in Figure 2) was used as negative control. The final concentration of DMSO was 0.1% or lower in all cases (including control). After incubation for 24 h, 20 µL of CellTiter 96 AQUEOUS One solution (Promega, Italy) were added to each well and the plate was incubated at 37 °C in a humidified, 5% CO2 atmosphere for 4 h. Absorbance was measured at 490 nm to detect formazan formation.

[1] = Tissue distribution of An2-PAPTP and metabolites (liver, spleen, kidneys, heart) after i.v. injection; type: in vivo, mouse; conditions: mean ± SEM; for metabolite in liver, 15 min: n = 5; for metabolite in heart, 15 min / metabolite in kidneys, 15 min / metabolite in spleen, 15 min: N = 5
Description: The total amount of An2-PAPTP and its metabolites, summarized in Table 3, is comprehensive of all the species having the characteristic psoralenic UV spectrum obtained by the overall extraction procedure (i.e., from organic solvent extraction and basic hydrolysis of the remaining pellet), and represents and underestimation of the real concentration in the tissue (see Section 4.7.3). This is because no recovery yield correction was applied, since it was impossible to identify most of the species extracted, and because PAPTPL extracted after high-pH hydrolysis of the pellet could come either from An2-PAPTP or from metabolites. For quantification in HPLC analysis, all the psoralenic species were assumed to have the same molar extinction coefficient as PAPTPL, an assumption justified by the near-identity observed for all the available psoralen-containing molecules.
(§1) The liver, spleen, kidneys, heart obtained from untreated mice were weighed and homogenized with PBS pH 7.4 (1 vol) with a potter. The pre-established amount of PAPTPL was added into tissue homogenates or blood and, after thorough vortexing, 5 vol of acetone were added and the sample was sonicated for 2 min. Subsequently, 5 vol of ACN containing 0.1% TFA were added and the sample was sonicated for 5 min. The sample was then centrifuged at 12,000× g for 7 min at 4 °C and the supernatant was collected, concentrated with a Hetovac VR-1, and analyzed via HPLC-UV.
as §1, with “Brain and liver” for “The liver, spleen, kidneys, heart”, “analyte” for “PAPTPL”, “homogenates” for “homogenates or blood”, “trifluoracetic acid (TFA)” for “TFA”
(§2) To quantify the amount of An2-PAPTP stuck in the tissue, the pellet remaining after the procedure described above was incubated with intermittent Vortexing at 60 °C for 3 h with PBS pH 12.5/ACN 1:1 and then centrifuged at 12,000× g for 7 min. HPLC-UV analysis of the supernatant, measuring PAPTPL hydrolyzed from the tissue, thus indirectly reflects the amount of An2-PAPTPL in the pellet (Scheme 3). Quantification was as described for PAPTPL.
(§3) A stock solution of the peptide-PAPTP conjugates was prepared in DMSO. TAT-PAPTP was administered at 8 and 5 μmol/kg bw and An2-PAPTP only at 5 μmol/kg bw. The calculated quantity of drugs was diluted from the stock solution in saline or mouse plasma to a final volume of 200 μL.

[2] = Preliminary brain levels after intraperitoneal An2-PAPTP; type: in vivo, mouse; conditions: An2-PAPTP 5 µmol/kg bw i.p. in DMSO; sacrifice at 20 min or 1, 2, 4 h; four mice
Experimental: In preliminary tests An2-PAPTP was administered at 5 µmol/kg bw by the intraperitoneal (i.p.) route, using dimethylsulfoxide (DMSO) as the vehicle. […] Many brain-penetrating peptides bind to biomolecules such as proteins and cell structures such as membranes. Furthermore, the absence of a flowing bloodstream at the injection site may cause a poorly soluble molecule to remain confined in the vicinity of the point of delivery. […] Collectively, these preliminary results led to the adoption of the intravenous route. An2-PAPTP (5 µmoles/kg bw, in plasma) was thus administered by tail vein injection to mice.

[3] = tested on: cultured glioma and glioblastoma cell lines; conditions: cited from earlier work
Description: (§4) In turn, this difficulty may be due at least in part precisely to the TPP group, since the parent compound, PAP-1, is effective against various Central Nervous System (CNS) disorders. This difficulty is not surprising if one compares the characteristics of ...

orthotopic glioma = conditions: orthotopic murine model; cited from earlier work
Description: as §4

[4] = type: in vivo, mouse; conditions: TAT-PAPTP 5 µmoles/kg bw i.v. tail vein in mouse plasma, 2 C57BL mice sacrificed within 15 min; PAPTPL extracted after hydrolysis at pH 12.5, HPLC
Experimental: The brains of these mice were analyzed to evaluate the presence of the construct in the tissue (see Section 4.7). Each brain was homogenized and incubated with an equal volume of phosphate-buffered saline (PBS, pH 12.5) for 24 h; 10 volumes of ethyl acetate were then added. After vigorous mixing, the organic phase was collected, concentrated and analyzed via HPLC. This procedure allows hydrolysis of the carbamate bond, leading to the extraction of PAPTPL, which is considered proportional to the amount of peptide-PAPTP conjugate (or its fragments) present in the brain.
The protocol set up for PAPTPL recovery turned out to be inefficient for the quantification of TAT-PAPTP. An alternative protocol was thus developed. Tissue obtained from untreated mice was weighed and homogenized with PBS pH 7.4 (1 vol) with a potter. The pre-established amount of analyte was added into tissue homogenates and, after thorough vortexing, 1 vol of PBS pH 12.5 was added and the sample was incubated with intermittent vortexing at 60 °C for 24 h. This step is required to allow the hydrolysis of the carbamate bond connecting the peptide and PAPTPL. 10 vol of ethyl acetate were added and, after vortexing and sonication for 2 min, the sample was centrifuged at 12,000× g, 7 min, Room Temperature. The organic phase was collected and concentrated with Hetovac VR-1. ACN was added to the concentrated sample to allow the resuspension of PAPTPL and analyzed via HPLC. Quantification was as described for PAPTPL.
as §1, with “Brain and liver” for “The liver, spleen, kidneys, heart”, “analyte” for “PAPTPL”, “homogenates” for “homogenates or blood”, “trifluoracetic acid (TFA)” for “TFA”
as §2, §3

C57BL mice = test: Observed toxicity after tail vein injection; type: in vivo; conditions: 5 µmoles/kg bw by tail vein injection in mouse plasma, no proper toxicological study
Experimental: TAT-PAPTP (5 µmoles/kg bw) was administered by tail vein injection to 2 C57BL mice. […] The observed toxicity was not due to the use of plasma, since mice were not made ill by the administration of PAPTP or An2-PAPTP in the same vehicle (see below, Section 2.7).
as §3

[5] = Stability in blood (hydrolysis, PAPTPL release); type: in vitro ADME; conditions: fresh heparinized C57BL mouse blood, 37 °C, 5 µM from 5 mM DMSO stock, HPLC-UV, % PAPTPL released relative to amount spiked, mean, n = 5 (An2-PAPTP) and 4 (TAT-PAPTP)
Experimental: C57BL mice were anesthetized and blood was withdrawn from the jugular vein and heparinized. Blood samples (1 mL) were spiked with compound (5 µM; dilution from a 5 mM stock solution in DMSO) and incubated at 37 °C for 4 h (the maximum period allowed by blood stability). Aliquots were taken after 10 min, 30 min, 1 h, 2 h, and 4 h before HPLC-UV analysis.
Each aliquot was treated as described above (Section 4.7.1). Compound stability in blood was expressed as % of PAPTPL released relative to the amount of An2-PAPTP and TAT-PAPTP spiked in the sample at time 0.

mouse Red Blood Cells = test: Haemolysis assay; type: cell-based; conditions: 5 × 10^7 mouse erythrocytes in 1 mL PBS pH 7.4, 2, 1 or 0.5 µM, 15 min, absorbance 540 nm, n = 3
Experimental: Haemolysis studies were conducted as described in [72]. Briefly, freshly withdrawn blood samples were centrifuged at 1000× g for 10 min to obtain erythrocytes; the pellet was then washed thrice with sterile PBS (pH 7.4). Erythrocytes (5 × 10^7 cells in 1 mL of PBS for each experimental condition) were incubated with 2, 1 or 0.5 µM An2-PAPTP or TAT-PAPTP for 15 min. The samples were then centrifuged and absorbance (Abs) of the supernatant was measured at 540 nm. Triton X-100 1% and PBS were used as positive and negative control, respectively.
The percentage of haemolysis was calculated with the following equation:% haemolysis = [(Abssample − AbsPBS)/AbsTriton X-100 − AbsPBS)] × 100

[6] = Aqueous solubility determination; type: physicochemical; conditions: kinetic, 25 mM DMSO stock diluted to 100 μM (DMSO < 0.4%), supernatant HPLC/UV
Experimental: For TAT-PAPTP and An2-PAPTP, three distinct suspensions were prepared by diluting 25 mM stock solutions in DMSO to 100 μM, in 0.9% NaCl saline or water (DMSO < 0.4%). The suspensions were sonicated 5 min and immediately analyzed. The suspensions were then centrifuged at 12,000× g, 18 °C, for 1 and 2 h, and the supernatants were analyzed by HPLC/UV at the end of each centrifugation. An additional analysis was performed after 24 h of standing. The chromatographic peak areas were used to determine the concentration of the compound in the supernatants, based on calibration curves built using solutions in DMSO.

[7] = after An2-PAPTP 5 µmoles/kg bw i.v.

O=C([O-])C(F)(F)F.O=c1ccc2c(OCCCCOc3ccc(CCC[P+](c4ccccc4)(c4ccccc4)c4ccc(OCCCc5ccc(O)cc5)cc4)cc3)c3ccoc3cc2o1 [PAPTPL, (4-(3-(4-hydroxyphenyl)propoxy)phenyl)(3-(4-(4-((7-oxo-7H-furo[3,2-g]chromen-4-yl)oxy)butoxy)phenyl)propyl)diphenylphosphonium 2,2,2-trifluoroacetate]
difference in cytotoxic effect versus PAPTP (SHSY-5Y cells; 24 h, MTS, one-way ANOVA): no statistically significant difference | cytotoxic effect (cell viability, MTS reduction assay) (SHSY-5Y cells; 24 h treatment, 20, 10 and 3 μM, absorbance 490 nm, n = 3): marked cytotoxicity | metabolite in liver, 15 min ([1]; after An2-PAPTP 5 µmoles/kg bw i.v. in mouse plasma, HPLC-UV): 1.5 ± 0.6 nmol/g fresh tissue | metabolite in heart, 15 min [1, 7]: 0.12 ± 0.06 nmol/g fresh tissue | metabolite in kidneys, 15 min [1, 7]: 0.7 ± 0.1 nmol/g fresh tissue | metabolite in liver, 15 min [1, 7]: 1.2 ± 0.5 % administered dose | metabolite in spleen, 15 min [1, 7]: 0.9 ± 0.2 nmol/g fresh tissue | metabolite in heart, 15 min ([1]; after An2-PAPTP i.v.): 0.013 ± 0.007 % administered dose | metabolite in kidneys, 15 min ([1]; after An2-PAPTP i.v.): 0.1 ± 0.1 % administered dose | metabolite in spleen, 15 min ([1]; after An2-PAPTP i.v.): 0.05 ± 0.02 % administered dose | detection in brain after i.p. administration [2]: no An2-PAPTP or PAPTPL could be detected

O=C(NCCC[P+](c1ccccc1)(c1ccccc1)c1ccccc1)Oc1ccc(OCCCCOc2c3ccoc3cc3oc(=O)ccc23)cc1.[I-] [PCARBTP, (3-(((4-(4-((7-oxo-7H-furo[3,2-g]chromen-4-yl)oxy)butoxy)phenoxy)carbonyl)amino)propyl)triphenylphosphonium iodide]
killing of cultured glioma and glioblastoma cell lines [3]: efficiently killed | effect on tumor growth (orthotopic glioma): did not affect tumor growth

CC[C@H](C)[C@H](NC(=O)Oc1ccc(CCCOc2ccc([P+](CCCc3ccc(OCCCCOc4c5ccoc5cc5oc(=O)ccc45)cc3)(c3ccccc3)c3ccccc3)cc2)cc1)C(=O)NCC(=O)N[C@@H](CCCNC(=N)N)C(=O)N[C@@H](CCCCN)C(=O)N[C@@H](CCCCN)C(=O)N[C@@H](CCCNC(=N)N)C(=O)N[C@@H](CCCNC(=N)N)C(=O)N[C@@H](CCC(N)=O)C(=O)N[C@@H](CCCNC(=N)N)C(=O)N[C@@H](CCCNC(=N)N)C(=O)N[C@@H](CCCNC(=N)N)C(=O)N1CCC[C@H]1C(=O)N1CCC[C@H]1C(=O)N[C@@H](CCC(N)=O)C(=O)NCC(=O)O [TAT-PAPTP]
construct level in brain [4]: 0.2–0.3 nmoles/g fresh tissue | observed toxicity in mice (C57BL mice): evident signs of illness (respiratory difficulties, trailing limbs, swelling of the paws) | observed toxicity in mice (C57BL mice; listed as TAT-PAPT): more toxic than its individual components (TAT and PAPTP) as well as than An2-PAPTP | hydrolyzed in mouse blood over 4 h (PAPTPL released) [5]: more stable | haemolysis (release of haemoglobin) (mouse Red Blood Cells): did | solubility in 0.9% NaCl saline ([6]; 0.9% NaCl saline, sonicated 5 min, centrifuged 12,000 × g 18 °C 1 and 2 h, detection limit 0.1 µM): > 100 µM | solubility in water ([6]; water, sonicated, centrifuged 12,000 × g 18 °C): > 100 µM
